Measured values reported in US20190023738A1, “THERAPEUTIC COMPOSITIONS INCLUDING PHENAZINE-3-ONE AND PHENOTHIAZINE-3-ONE DERIVATIVES AND USES THEREOF” (Stealth BioTherapeutics Corp, priority 2015, published 2019).

What was measured:
[1] = tested on: several mammalian cell types; conditions: cited from earlier work
[2] = tested on: neonatal cardiomyocytes; test: Mitosox mitochondrial superoxide in Angiotensin II-stimulated neonatal cardiomyocytes (flow cytometry); format: cell-based, mouse; conditions: NAC 0.5 mM, Angiotensin II 1 μM for 3 hours, Mitosox fluorescence
Description: Ventricles from mouse neonates younger than 72 hours will be dissected, minced, and enzymatically digested with Blendzyme 4 (45 mg/mL, Roche). After enzymatic digestion, cardiomyocytes will be enriched using differential pre-plating for 2 hours, and seeded on fibronectin-coated culture dishes for 24 hours in DMEM (Gibco) with 20% Fetal Bovine Serum (Sigma) and 25 μM Arabinosylcytosine (Sigma). Cardiomyocytes will be stimulated with Angiotensin II (1 μM) for 3 hours in serum-free DMEM containing 0.5% insulin transferrin-selenium (Sigma), 2 mM glutamine, and 1 mg/mL BSA. […] Samples will be analyzed using excitation/emission of 488/625 nm by flow cytometry. Flow data will be analyzed using FCS Express (De Novo Software, Los Angeles, Calif., U.S.A.), and presented as histogram distributions of Mitosox fluorescence intensity.

Compound | penetration of the plasma membrane [1] | effect on the level of mitochondrial ROS after Ang II [2]
2′,6′-Dmt-D-Arg-Phe-Lys-NH2 | readily penetrates the plasma membrane of several mammalian cell types in an energy-independent manner | 
CC(=O)N[C@@H](CS)C(=O)O [N-acetyl cysteine] |  | not show any effect
